Experimental data taken from patent US20030180345A1, “Compositions and methods for inhibiting islet dysfunction and autoimmune disorders” (priority 2000, published 2003).
“Also recorded” adds a separate entry of the source.

What was measured:
fetal islet cells = assay: In vitro fetal islet cell proliferation (BrdU incorporation); assay type: cell-based, Wistar rats; conditions: LP islets; taurine 1.25 or 2.5 mmol/l in culture media
Procedure: Animals and diets were as described in Example 1. Fetuses were removed at fetal day 21.5, and fetal islet cells were isolated and treated as described in Example 1. Taurine was added to incubation medium at levels of either 0 mmol/l, 1.25 mmol/l or 2.5 mmol/l. Proliferation was evaluated using bromodeoxyuridine (BrdU) incorporation into DNA.

iNOS = assay: Islet iNOS immunoreactivity with dietary taurine supplementation; assay type: in vivo, Wistar rats; conditions: all stages
Procedure: Animals and diets were prepared as described in Example 8. The pancreas was removed, and the presence of Fas, Fas ligand, inducible nitric oxide synthase (iNOS) and vascular endothelial growth factor (VEGF) were evaluated in pancreatic sections using immunoreactivity.

NOD mice = assay: Gestational taurine supplementation in NOD mice: diabetes onset, insulitis and endocrine pancreas development; assay type: in vivo
From the text: Pregnant NOD mice (maintained as in Example 13) were supplemented with 2.5% of taurine in drinking water during gestation. Pups were either sacrificed at 14 days of age, and pancreata were collected and fixed for histology as depicted in FIG. 16, or followed until glucosurea was apparent.

IGF-II = assay: Islet IGF-II immunoreactivity with dietary taurine supplementation; assay type: in vivo, Wistar rats; conditions: LP diet with taurine
Procedure: Animals and diets were prepared as described in Example 7. The pancreas was removed, and IGF-II immunoreactivity was evaluated according to a method described by […] et al., (Endocrinology 1999;140: 4861-4873). Expression of IGF-II, considered a survival factor for cells, was measured as an indicator of the overall health of the β cells.

fetal islet β cells = assay: SNP-induced apoptosis in cultured fetal islets (TUNEL, confocal microscopy); assay type: cell-based, Wistar rats; conditions: for in vitro apoptotic rate: absence of SNP
Procedure: Animals and Diets. Adult virgin female Wistar rats were caged overnight with males and copulation was verified the next morning. Animals were maintained at 25° C. with a 10 h-14 h dark-light cycle. Pregnant rats were divided into two groups and fed one of the following isocaloric diets: either a control diet (C) containing 20% protein or a low protein diet (LP) containing 8% protein. The composition of the diet was as described previously by Snoeck et al. 1990 (Biol. Neonate 57, 107-118). The diets were purchased from Hope Farms (Woerden, Holland). Animals in both the groups had free access to water at all times. At 21.5 days of gestation, females were sacrificed by decapitation and fetuses removed.
Islet culture and treatment. Fetal islets were isolated as described by Mourmeaux et al. 1985 (Molecular and Cellular Endocrinology 39:237-246). Islets were cultured in 35 mm Petri-dishes (Falcon plastics, Los Angeles, Calif.) in RPMI 1640 medium (Gibco, Grand Island, N.Y., USA) with 10% Fetal Bovine Serum and antibiotics (penicillin 200 U/ml, streptomycin 0.2 mg/ml). Petri dishes were incubated at 37° C. with 5% CO2 in air. The culture medium was changed daily after the second day. On the 5th day of culture, islets were rinsed twice with serum free DME/F12 medium (1:1, v/v, Gibco, Paisley, Scotland) and subsequently incubated for 42 hours in this medium. […]
TUNEL method for evaluating apoptosis. Apoptosis was evaluated by the TUNEL method described herein, and visualized with confocal microscopy. Cultured islets were fixed in methanol and stored at −20° C. until analysis. The tissue was then washed with phosphate buffered saline (PBS) for 3 min, and a terminal deoxynucleotidyl transferase (TdT) reaction buffer (50 μl) was added. The 50 μl of TdT solution was prepared using 10 μl of 5× concentrated buffer solution (1 mol/l potassium cacodylate; 125 mmol/l Tris-HCl, pH 6.6; 1.26 mg bovine serum albumin). Cobalt chloride (5 μl of 25 mmol/l), 0.5 μl (12.5 units) of TdT (both from Boehringer Mannheim, Germany), and 0.25 nmoles of BODIPY-FL-X-14-dUTP (Molecular Probes, Eugene, Oreg. USA) were added, along with distilled water, up to 50 μl. Islets were incubated in Petri dishes with the TdT reaction buffer for 60 min at 37° C., then rinsed twice with 15 mmol/l EDTA (pH 8.0) in PBS and once with 0.1% Triton X-100 in PBS. Then, 2 ml of PBS containing 2.5 μg/ml of propidium iodide (Molecular Probes, Eugene, Oreg. USA) was added to the dishes for 5 min. Finally, islet cells were washed with 15 mmol/l EDTA (pH 8.0). Islet cells were then double-labelled for apoptotic nuclei, showing the BODIPY-FL-dUTP label in […] and total nuclei with propidium iodide in red.
Confocal microscopy. Staining probes were visualised through a confocal laser scanning microscopy system (MRC-1024 UV; BIO-RAD, UK) equipped with Argon ion and Krypton/Argon ion lasers. BODIPY-FL was excited at 503 nm, ethidium bromide at 510 nm, propidium iodide at 536 nm and Hoechst 33342 at 346 nm. The emissions were recorded respectively at 522/32 nm, 605/32 nm and 455/30 nm. Four to six optical sections were collected at every 15 μm through the islet. The number of BODIPY-FL-positive or ethidium bromide-positive nuclei were reported and expressed as a percentage of the total number of nuclei.
Animals, diets, and fetal islet isolation procedures were conducted as described in Example 1.

[1] = 3 mmol/l taurine; SIN-1
Procedure: Chemiluminescence measurements. Luminol (5-amino-2,3-dihydro-1-4-phtalazinedione) at 400 μmol/l (Sigma Chemical Co.), taurine (0.3 or 3 mmol/l), methionine (0.1 or 1 mmol/l) and β-alanine (0.3 or 3 mmol/l) stock solutions were prepared in PBS. Sydnonimine (SIN-1), also known as 3-morpholinosydnonimine, a source of peroxynitrite, was purchased from Sigma Chemical Co. SIN-1 was prepared as 100 μmol in 1 mol/l NaOH. A reaction was initiated by simultaneous injection of luminol and SIN-1 into wells containing PBS either alone or with supplemental amino acid levels as noted above. Chemiluminescence emitted by luminol in the presence of peroxynitrite was measured every 30 seconds over 20 minutes in a chemifluorophotometer (MicroLumat LB96P, EG&G BERTHOLD), and was quantified as light intensity (10^8 RLU).
Nitric oxide is a reactive free radical which leads to peroxynitrite formation, another reactive free radical, by interaction with superoxide (NO+OO^−→ONOO^−). […] Luminol-derived chemiluminescence induced by peroxynitrite produced by the decomposition of sydnonimine (SIN-1) was evaluated to investigate the possibility that taurine quenched the peroxynitrite formed from NO.

SMILES: NCCS(=O)(=O)O [taurine, 2-aminoethylsulfonic acid]
- in vitro islet cell proliferation rate (BrdU) (fetal islet cells): increased LP islet cell proliferation rate to the levels observed in C islets having no taurine addition
- iNOS immunoreactivity (iNOS): no effect
- proportion of IGF-II-immunoreactive islet cells (NOD mice; 14 days of age, p<0.01): greater proportion
- mean islet area (NOD mice; 14 days of age, p<0.05): significantly smaller
- proportion of proliferating islet cells (NOD mice; 14 days of age, p<0.05): greater proportion
- number of apoptotic cells in islets (NOD mice; NOD female mice, 14 days of age, vs control animals): reduced nearly in half; also recorded: less apoptotic cells
- survival (NOD mice; female and male NOD mice, Log Rank and Wilcoxon tests): improved survival
- reduction of insulitis (NOD mice; insulitis appearing at 8 weeks, 2.5% taurine in drinking water during gestation): 90%
- insulin/glucagon ratio (NOD mice; small islets, NOD female mice): No difference
- percentage of PCNA positive cells (cell proliferation) (NOD mice; small islets, NOD female mice): significant increase
- percentage of area stained for glucagon (alpha cells) (NOD mice; small islets, NOD female mice): significantly increased
- percentage of area stained for insulin (β mass) (NOD mice; small islets, NOD female mice): significant increase
- age by which 50% of mice became diabetic (NOD mice; taurine treatment n=51, controls 16 weeks, p<0.001): 26 weeks
- IGF-II immunoreactivity (IGF-II; fetal period (F21.5)): increased IGF-II immunoreactivity to a level consistent with the C diet animals
- IGF-II immunoreactivity (IGF-II; post-natal): restored IGF-II immunoreactivity levels to the point that the control IGF-II level was surpassed
- reduction of SNP-induced apoptosis (fetal islet β cells; 0.3 mmol/l taurine, SNP 100 μmol/l, LP islets): 60%
- reduction of SNP-induced apoptosis (fetal islet β cells; 0.3 mmol/l taurine, SNP 100 μmol/l, control islets): 30%
- in vitro apoptotic rate (fetal islet β cells; control diet (C) islets, 0.3 mmol/l taurine): 1.5±0.2%
- in vitro apoptotic rate (fetal islet β cells; control diet (C) islets, 3 mmol/l taurine): 1.4±0.3%
- in vitro apoptotic rate (fetal islet β cells; low protein diet (LP) islets, 0.3 mmol/l taurine): 2.1±0.3%
- in vitro apoptotic rate (fetal islet β cells; low protein diet (LP) islets, 3 mmol/l taurine): 2.1±0.4%
- percentage of β cells positive for apoptosis (fetal islet β cells; taurine 0.3 or 3 mmol/l, SNP 100 μmol/l, both diet groups): significantly decreased
- luminol chemiluminescence (peroxynitrite quenching) [1]: dramatically decreased
